Data taken from US11639350B2, “Heteroaryldihydropyrimidine derivatives and methods of treating hepatitis B infections” (Janssen Pharmaceutica NV, priority 2018, dated 2023).

What was measured:
[1] = Cytotoxicity determination in HepG2.2.15 cells (CCK-8); type: cell-based; conditions: human, 6 days of compound treatment, CCK-8, highest concentration 100 μM
Method in brief: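 CC50 is from CCK-8 absorbance (450 nm, 630 nm reference) after 2.5 h with reagent. Before that, compounds were applied for six days, top concentration 100 μM, eight threefold dilutions, one mid-course medium change, to stably HBV-integrated HepG2.2.15 cells plated at 5,000/well in 2% FBS.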

[2] = system: HBV; experiment: HBV inhibitory activity: HBV DNA in the culture medium of HepG2.2.15 cells by q-PCR; type: cell-based; conditions: Hepatitis B virus, HepG2.2.15, 144 h, HepG2.2.15 cells, 6 days of compound treatment, HBV DNA in culture medium by q-PCR, highest concentration 10 μM; read-out: EC50
Method in brief: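 Supernatant HBV DNA quantified by q-PCR after a 6-day compound exposure, with one mid-course medium change, of HepG2.2.15 cells (stably integrated HBV; 40,000 per well, 2% FBS). Eight-point 3-fold series topped at 10 μM for antiviral EC50; separate plates of 5,000 cells per well with 100 μM top give CC50.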

COC(=O)C1=C(C2CCN(S(=O)(=O)C3CC(C)(C(=O)O)C3)CC2)NC(c2nccs2)=NC1c1ccc(F)cc1Cl (stereo not drawn) [Compound 141, (trans)-3-((4-(6-(2-chloro-4-fluorophenyl)-5-(methoxycarbonyl)-2-(thiazol-2-yl)-3,6-dihydropyrimidin-4-yl)piperidin-1-yl)sulfonyl)-1-methylcyclobutane-1-carboxylic Acid]
CC50 at 6 days [1]: 30700 nM
EC50 [2]: 51 nM

CCOC(=O)C1=C(C2CCN(S(=O)(=O)[C@H]3C[C@H](C(=O)O)C3)CC2)NC(c2nccs2)=NC1c1ccccc1Cl (stereo partly drawn) [Compound 146, (trans)-3-((4-(6-(2-chlorophenyl)-5-(ethoxycarbonyl)-2-(thiazol-2-yl)-3,6-dihydropyrimidin-4-yl)piperidin-1-yl)sulfonyl)cyclobutane-1-carboxylic Acid]
CC50 at 6 days [1]: 42100 nM
EC50 [2]: 68 nM

CCOC(=O)C1=C([C@H]2CC[C@H](C(=O)O)CC2)NC(c2nccs2)=NC1c1ccccc1Br (stereo partly drawn) [Compound 148A, (trans)-4-(6-(2-bromophenyl)-5-(ethoxycarbonyl)-2-(thiazol-2-yl)-3,6-dihydropyrimidin-4-yl)cyclohexane-1-carboxylic Acid]
CC50 at 6 days [1]: 29400 nM
EC50 [2]: 97 nM

CCOC(=O)C1=C([C@H]2CC[C@H](C(=O)O)CC2)NC(c2nccs2)=NC1c1cccc(F)c1Br (stereo partly drawn) [Compound 150A, (trans)-4-(6-(2-bromo-3-fluorophenyl)-5-(ethoxycarbonyl)-2-(thiazol-2-yl)-3,6-dihydropyrimidin-4-yl)cyclohexane-1-carboxylic Acid]
CC50 at 6 days [1]: 28100 nM
EC50 [2]: 71 nM

COC(=O)C1=C([C@H]2CC[C@H](C(=O)O)CC2)NC(c2nccs2)=NC1c1cccc(F)c1Br (stereo partly drawn) [Compound 152A]
CC50 at 6 days [1]: 39500 nM
EC50 [2]: 92 nM

CCOC(=O)C1=C([C@H]2CC[C@H](C(=O)O)CC2)NC(c2nccs2)=NC1c1ccc(F)c(F)c1C (stereo partly drawn) [Compound 154A]
CC50 at 6 days [1]: 30700 nM
EC50 [2]: 71 nM

CCOC(=O)C1=C([C@H]2CC[C@H](C(=O)O)CC2)NC(c2nccs2)=NC1c1ccc(F)cc1Br (stereo partly drawn) [Compound 156]
CC50 at 6 days [1]: 34900 nM
EC50 [2]: 71 nM

COC(=O)CCS(=O)(=O)N1CCC(C2=C(C(=O)OC)C(c3ccc(F)c(F)c3Cl)N=C(c3nccs3)N2)CC1 (stereo not drawn) [Compound 157A, Methyl 4-(2-chloro-3,4-difluorophenyl)-6-(1-((3-methoxy-3-oxopropyl)sulfonyl)piperidin-4-yl)-2-(thiazol-2-yl)-1,4-dihydropyrimidine-5-carboxylate]
CC50 at 6 days [1]: 80000 nM
EC50 [2]: 85 nM

COC(=O)C1=C(C2CCN(S(=O)(=O)c3cn[nH]c3)CC2)NC(c2nccs2)=NC1c1cccc(F)c1Cl (stereo not drawn) [Compound 158A, methyl 6-(1-((1H-pyrazol-4-yl)sulfonyl)piperidin-4-yl)-4-(2-chloro-3-fluorophenyl)-2-(thiazol-2-yl)-1,4-dihydropyrimidine-5-carboxylate]
CC50 at 6 days [1]: 12700 nM
EC50 [2]: 9 nM

CCOC(=O)C1=C([C@H]2CC[C@H](C(N)=O)CC2)NC(c2nccs2)=NC1c1ccc(F)cc1Cl (stereo partly drawn) [Compound 163, (trans)-ethyl 6-(−4-carbamoylcyclohexyl)-4-(2-chloro-4-fluorophenyl)-2-(thiazol-2-yl)-1,4-dihydropyrimidine-5-carboxylate]
CC50 at 6 days [1]: 23900 nM
EC50 [2]: 65 nM

COC(=O)C1=C(C2CCN(S(=O)(=O)N3CCOCC3)CC2)NC(c2nccs2)=NC1c1ccc(F)cc1Cl (stereo not drawn) [Compound 164, Methyl 4-(2-chloro-4-fluorophenyl)-6-(1-(morpholinosulfonyl)piperidin-4-yl)-2-(thiazol-2-yl)-1,4-dihydropyrimidine-5-carboxylate]
CC50 at 6 days [1]: 57400 nM
EC50 [2]: 58 nM

COC(=O)C1=C(C2CCN(S(=O)(=O)c3cnn(C)c3)CC2)NC(c2nccs2)=NC1c1ccc(F)cc1Cl (stereo not drawn) [Compound 165, Methyl 4-(2-chloro-4-fluorophenyl)-6-(1-((1-methyl-1H-pyrazol-4-yl)sulfonyl)piperidin-4-yl)-2-(thiazol-2-yl)-1,4-dihydropyrimidine-5-carboxylate]
CC50 at 6 days [1]: > 100000 nM
EC50 [2]: 12 nM
